Test results: patent US20100016394A1, “BIOCIDAL COMPOSITIONS” (priority 2008, published 2010)
Marks after values point to notes of the source that are not given here.

Key:
[1] = system: mold; assay: Modified ASTM-G21 mold resistant test on fungicide-infused Kraft paper; type: cell-based; conditions: single active infused in Kraft paper; pass = mold resistant rating of 0 or 1; Trichoderma virens omitted from spore inocula
Procedure: In this example unbleached Kraft paper (brown wrapping paper (density 0.0091 g/cm2) is infused with DIMTS, carbendazim (BCM) and chlorothalonil (CTL) over a broad concentration range. In addition, paired combinations as well as all 3 actives combined are also infused into Kraft paper samples. Infusion of fungicide into paper is conducted by first dissolving the technical actives in a volatile solvent followed by addition of 1 mL of a working stock solution onto the surface of the paper to give the appropriate concentration of active(s) in mg/kg paper. The solvent completely saturates the paper. In order to prevent solvent from leaching through paper onto container, the paper is supported with a Viton O-ring. The solvent saturated paper samples are allowed to dry in a chemical fume hood precipitating the fungicides within the paper. Chemical analyses of fungicide actives in the paper samples confirms that this infusion technique produces >90% incorporation efficiency based on target concentrations. Standard mold resistant tests are performed on duplicate sub samples from each paper infusion sample. A modified ASTM-G21 is the standard mold resistant test used for performance evaluation. Synergy indices are calculated for all combinations of actives using a mold resistant rating of 0 or 1 as the passing criteria for performance. Synergy calculations are made according to the following standard equation:
SI=(Ca/CA)+(Cb/CB) 2 combination tests
SI=(Ca/CA)+(Cb/CB)+(Cc/CC) 3 combination tests
Ca is the lowest concentration of component A in combination with other active(s) required to pass test criteria;
CA is the lowest concentration of component A alone required to pass test criteria;
Cb is the lowest concentration of component B in combination with other active(s) required to pass test criteria;
CB is the lowest concentration of component B alone required to pass test criteria;
Cc is the lowest concentration of component C in combination with other active(s) required to pass test criteria; and
CC is the lowest concentration of component C alone required to pass test criteria. […]

[2] = cited from earlier work

Structure (SMILES)	PPM (active), lowest concentration of component alone required to pass test criteria [1]	Water solubility [2]
COC(=O)Nc1nc2ccccc2[nH]1 [BCM, methyl 2-benzimidazolecarbamate]	1200 PPM	
N#Cc1c(Cl)c(Cl)c(Cl)c(C#N)c1Cl [CTL, 1,3-dicyano-tetrachlorobenzene]	> 1000* PPM	
Cc1ccc(S(=O)(=O)C(I)I)cc1 [DIMTS, diiodomethyltolylsulfone]	4000 PPM	water insoluble
